Results on one molecule are retold here after patent US10329273B2, “Tetrazolone-substituted dihydropyridinone MGAT2 inhibitors” (BRISTOL-MYERS SQUIBB COMPANY, priority 2014, dated 2019).

This assay has as its target human MGAT-2 (Homo sapiens (Human), UniProt Q3SYC2). The experiment in a line: MGAT LCMS assay. In kind it is biochemical. As to conditions: human MGAT-2 membranes expressed in Sf9 cells; 100 μM 2-oleoylglycerol, 15 μM oleoyl-coenzyme A; read-out: h-MGAT LCMS IC50. Here is the method: The MGAT enzyme reactions were performed in Corning FALCON® 96-well polypropylene plates, in a total volume of 60 μL of 50 mM potassium phosphate buffer pH 7.4, containing a final concentration of 100 μM 2-oleoylglycerol, 15 μM oleoyl-coenzyme A and 0.0013 μg/μL human or mouse MGAT-2 or 0.0026 μg/μL rat recombinant MGAT-2 membranes expressed in Sf9 cells. Assay plates were run through a fully automated robotics system and shaken for 5 seconds every minute for a total 10 minutes. The reactions were then quenched with 120 μL of ice cold methanol containing 1 μg/mL 1,2-distearoyl-rac-glycerol as the internal standard. Plates were shaken for 2 minutes and spun down to remove protein precipitation. After the spin, samples were transferred to LC/MS compatible PCR plates. For LC/MS analysis, a ThermoFisher Surveyor pump, utilizing a Waters SYMMETRY® C8, 50×2.1 mm column, was used for the chromatography of enzyme products. The buffer system consists of 0.1% formic acid in water with a mobile phase consisting 0.1% formic acid in methanol. The shallow gradient is 90-100% mobile phase in 0.2 min with a total run time of 2.3 min. […]
The exemplified Examples disclosed below were tested in the MGAT2 in vitro assays described above and were found having MGAT2 inhibitory activity. Table 1 below lists human MGAT2 IC50 values measured for the following examples.

Chain of human MGAT-2 (Q3SYC2 whole entry): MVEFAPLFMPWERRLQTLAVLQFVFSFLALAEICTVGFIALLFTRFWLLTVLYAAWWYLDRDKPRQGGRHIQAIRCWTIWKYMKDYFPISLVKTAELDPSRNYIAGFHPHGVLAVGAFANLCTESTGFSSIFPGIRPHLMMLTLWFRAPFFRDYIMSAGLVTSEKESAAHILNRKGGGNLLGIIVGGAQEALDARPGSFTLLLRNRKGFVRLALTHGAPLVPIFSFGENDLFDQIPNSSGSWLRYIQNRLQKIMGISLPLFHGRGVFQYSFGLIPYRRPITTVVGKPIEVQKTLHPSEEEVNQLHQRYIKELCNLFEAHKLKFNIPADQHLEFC

Turning to `O=C1N[C@@](c2ccc(OCCCC(F)(F)F)cc2F)(C(F)(F)F)CC(c2ccn(CC3CCC3)n2)=C1n1nn[nH]c1=O` [Example 16], the half-inhibitory concentration (IC50) (commonly the concentration that inhibits the measured activity by half) worked out at 5 nM.
